{"source": "patent US20090297534A1", "about": "“Catalytic Immunoglobulins BBK32 and Uses Therefor” (priority 2005, published 2009)", "key": {"[1]": {"tested_on": "IgA", "format": "biochemical, human"}, "[2]": {"tested_on": "IgM Yvo", "assay": "Irreversible binding of biotinylated phosphonate by IgM Yvo", "details": "probe 500 μM; IgM Yvo 0.1 μM"}, "[3]": {"tested_on": "IgA (serum and salivary)", "assay": "Phosphonate binding: irreversible adducts with IgA, SDS-electrophoresis, streptavidin-peroxidase", "details": "reducing SDS-gels after heating (100° C., 5 min)"}, "[4]": {"tested_on": "Monoclonal IgA (ID 2582)", "assay": "Stoichiometry / active site titration of monoclonal IgA with phosphonate", "format": "biochemical, human", "details": "for x-intercept of residual activity (%) versus [inhibitor]/[IgA] plot: monoclonal IgA 2582 preincubated 18 h with 2.5-20 μM inhibitor, Glu-Ala-Arg-AMC 0.4 mM"}, "[5]": {"tested_on": "IgA catalyzed gp120 cleavage (salivary IgA, serum IgA)", "assay": "Inhibition of IgA catalyzed gp120 cleavage", "format": "biochemical, human", "method": "Values are means of duplicates.\nFIG. 20B depicts streptavidin-peroxidase stained SDS-gel blots (reducing conditions) showing Bt-gp120 (0.1 μM) incubated in diluent (lane 1) and monoclonal IgA (80 μg/ml, from multiple myeloma subject 2582) in the absence (lane 2) or presence of Glu-Ala-Arg-AMC (lane 3; 0.2 mM). […] FIG. 20C is EP-hapten 3 which is the non-biotinylated version of EP-hapten 1.\nIn some experiments, the cleavage rate was expressed as the intensity of the 55 kD product band (in AVU, corrected for background intensity observed in reaction mixtures of gp120 incubated in diluent instead of Ab). For cleavage site determination, gp120 was incubated with IgA (pooled from subject codes 2288-2291), the IgA was removed by binding to an anti-human IgA column as described above, and the unbound fraction was lyophilized and redissolved in SDS-electrophoresis buffer containing 2-mercaptoethanol. The gp120 fragments in PVDF blots of SDS-gels were stained with Coomassie blue and subjected to N-terminal sequencing as described previously (33)."}, "[6]": {"tested_on": "HIV neutralizing activity of CIVIG / IgA", "assay": "Inhibition of immunoglobulin-mediated HIV neutralization by electrophilic peptide", "format": "cell-based, HIV-1", "details": "100 μM; for Effect on HIV neutralizing activity of serum IgA: 0.5 h preincubation, IgA 2 μg/ml", "method": "CIVIGm (FIG. 10A) and CIVGa (FIG. 10B) were incubated for 30 min with gp120 peptide-CRA (100 μM) or diluent, and the residual neutralization activity was determined as in FIG. 9 (CIVIGm, 10 μg/mL; CIVGa, 2 μg/mL).\nHIV-1 strain, 97ZA009; host cells, phytohemagglutinin-stimulated PBMCs. Abs were incubated with the virus for 24 h. Values are expressed as percent reduction of p24 concentrations in test cultures compared to cultures that received diluent instead of the Abs (means±s.d. of 4 replicates). […] IgA purified from human serum (2 μg/ml) was preincubated (0.5 h) with EP-421-433 (100 μM), control EP-VIP or diluent, and the residual HIV neutralizing activity measured as in panel A. Data are expressed relative p24 levels observed in the absence of antibody. […] HIV was preincubated with the salivary or serum IgA for 1 h and the neutralizing activity measured as in FIG. 24A.\nCovalently reactive analogs (CRAs) of polypeptides have been developed as probes for antibodies. CRAs contain an electrophilic phosphonate analog capable of irreversible binding to nucleophiles present in antibody combining sites. The covalent reaction occurs in coordination with noncovalent antigen-antibody binding, ensuring specificity, and permitting the use of peptidyl CRAs for irreversible and specific binding to the antibodies. One such peptidyl CRA reported is an analog of gp120 residues 421-433 containing the phosphonate at its C terminus (gp120 peptide CRA). This region of gp120 is a component of the superantigenic site of this protein. Neutralization of HIV-1 by CIVIGa and CIVIGm was inhibited by the gp120 peptide CRA, confirming that recognition of the gp120 superantigenic site is required for the neutralizing activity. FIGS. 10A-10B illustrate these findings. CIVIGm and CIVGa were preincubated with the gp120 peptide-CRA or diluent, and the residual neutralization activity was determined as in FIG. 9. An irrelevant peptide CRA, VIP-CRA was employed as the control reagent to rule out nonspecific effects. […]"}, "[7]": {"details": "10 μM, bleed 2, conditions as FIG. 22B"}, "[8]": {"details": "increasing concentrations 10-100 μM"}}, "note": "Where no end group is shown, it is not given here."}
{"compound": "N=C(N)c1ccc(C(NC(=O)CCCCCNC(=O)CCCC[C@@H]2SC[C@@H]3NC(=O)N[C@@H]32)P(=O)(Oc2ccccc2)Oc2ccccc2)cc1", "note": "(stereo partly shown) [1a, diphenyl N-(6-biotinamidohexanoyl)amino(4-amidinophenyl)methanephosphonate]", "values": [{"measurement": "IC50", "setting": "[1]", "result": "37 ± 1", "unit": "µM"}, {"measurement": "Inhibition of catalytic activity of serum IgA", "setting": "[1]", "result": "inhibited the catalytic activity"}, {"measurement": "Irreversible reaction with IgM Yvo", "setting": "[2]", "result": "reacts irreversibly"}, {"measurement": "Formation of irreversible adducts with IgA", "setting": "[3]", "result": "dominant ˜60 kD 1a-adduct of the heavy chain"}, {"measurement": "Formation of irreversible adducts with IgA", "setting": "[3]; listed as EP-hapten 1", "result": "formed adducts"}]}
{"compound": "N=C(N)c1ccc(C(NC(=O)OCc2ccccc2)P(=O)(Oc2ccccc2)Oc2ccccc2)cc1", "note": "(stereo not shown) [1b, diphenyl N-(benzyloxycarbonyl)amino(4-amidinophenyl)methanephosphonate]", "values": [{"measurement": "x-intercept of residual activity (%) versus [inhibitor]/[IgA] plot", "setting": "[4]", "result": 2.5}, {"measurement": "x-intercept of residual activity (%) versus [inhibitor]/[IgA] plot", "setting": "[4]; listed as EP-hapten 3", "result": 2.4}, {"measurement": "Inhibitor needed for complete inhibition of 1 mole IgA", "setting": "[4]; monoclonal IgA, Glu-Ala-Arg-AMC substrate", "result": 2.4, "unit": "mol"}]}
{"compound": "N=C(N)c1ccc(C(NC(=O)CCCCCNC(=O)CCCC[C@@H]2SC[C@@H]3NC(=O)N[C@@H]32)P(=O)(O)O)cc1", "note": "(stereo partly shown) [hapten 2, N-(6-biotinamidohexanoyl)amino(4-amidinophenyl)methanephosphonic acid]", "values": [{"measurement": "Irreversible reaction with IgM Yvo", "setting": "[2]", "result": "does not react appreciably"}, {"measurement": "Formation of irreversible adducts with IgA", "setting": "[3]", "result": "did not inhibit IgA-catalyzed gp120 cleavage or form adducts"}]}
{"compound": "EP-421-433: gp120 residues 421-431 with the amidinophosphonate mimetic of residues 432-433 at the C-terminus (KQIINMWQEVG; not fully specified (C-terminus); printed as Lys-Gln-Ile-Ile-Asn-Met-Trp-Gln-Glu-Val-Gly)", "values": [{"measurement": "% inhibition of gp120 cleavage by IgA of SP subject 2097", "setting": "[5]; [7]", "result": "89±6", "unit": "%"}, {"measurement": "% inhibition of gp120 cleavage by IgA of SP subject 2098", "setting": "[5]; [7]", "result": "94±12", "unit": "%"}, {"measurement": "Inhibition of cleavage of Bt-gp120 by salivary IgA", "setting": "[5]; [8]", "result": "21-85%"}, {"measurement": "Inhibition of cleavage of Bt-gp120 by serum IgA", "setting": "[5]; [8]", "result": "41-91%"}, {"measurement": "Inhibition of HIV-1 neutralization by CIVIGa and CIVIGm", "setting": "[6]; 30 min preincubation, CIVIGm 10 μg/mL, CIVGa 2 μg/mL", "result": "inhibited"}, {"measurement": "Effect on HIV neutralizing activity of serum IgA", "setting": "[6]", "result": "inhibited the neutralizing activity"}, {"measurement": "Formation of irreversible adducts with IgA", "setting": "[3]", "result": "superior irreversible binding"}]}
{"compound": "EP-VIP: VIP containing the amidinophosphonate at Lys20 side chain; control electrophilic peptide", "values": [{"measurement": "% inhibition of gp120 cleavage by IgAs of SP subjects 2097 and 2098", "setting": "[5]; equivalent concentration (10 μM) of control probe", "result": "< 15", "unit": "%"}, {"measurement": "Effect on HIV neutralizing activity of serum IgA", "setting": "[6]", "result": "minimally influenced"}]}
